In patent US20170312308A1, “XENON AND/OR ARGON TREATMENT AS AN ADJUNCT TO PSY[…] PSYCHIATRIC DISORDERS” (THE MCLEAN HOSPITAL CORPORATION, priority 2012, published 2017):
Entries after “also recorded” stand apart in the source; their conditions may differ.

Assays:
Format in all cases: in vivo, rat
Male Sprague-Dawley rats [1] = assay: Conditioned freezing paradigm: consolidation of fear memory (xenon exposure immediately after fear conditioning); details: for conditioned freezing to context (consolidation of fear memory) / conditioned freezing to tone (CS) (consolidation of fear memory): xenon 25% for 24 h immediately after tone+shock training, vs Air-treated, tested after exposure and retested 1 and 2 weeks later; for conditioned freezing to context (consolidation of fear memory): FIG. 1B; for conditioned freezing to tone (CS) (consolidation of fear memory): FIG. 1C
Experimental: (§1) An illustration of the methodology used for training and testing rats in the conditioned freezing paradigm is shown in FIG. 1 (see also Johansen et al., Cell, 2011, 147; 509-524). Male Sprague-Dawley rats (350-375 g) were housed for at least one week before the experiment. On the training day, rats were placed into a conditioning chamber, housed within a sound-attenuating cabinet (Med Associates, Georgia, Vt.), for 2 min before the onset of the conditioned stimulus (CS). The CS was a tone (5 kHz, 75 dB) that lasted for 30 s. The last 2 s of the CS were paired with a continuous foot shock (0.6 mA, the unconditioned stimulus (US)). Rats received two presentations of the CS+US (tone plus shock). After additional 30 s in the chamber, rats were randomly divided into two groups (n=4/group) and immediately placed in either the Air or xenon-exposure chambers. After 24-h of air or xenon (25%) exposure, rats were tested for retention of conditioned fear using conditioned freezing as a measure of fear. For the test, rats were placed into a different context and, 2 min later, were exposed to the tone CS (5 kHz, 75 dB) for 60 s. Freezing scores were calculated as the percentage of the total duration that the rat remained immobile (frozen) other than breathing during the first 2 min (freezing to context) and during presentation of the CS (freezing to tone). Rats were then returned to the main animal holding room (i.e. no more air or xenon exposure took place) and were retested 1 and 2 weeks later (re-test and 3rd test) as described above.

Male Sprague-Dawley rats [2] = assay: Conditioned freezing paradigm: reconsolidation of fear memory (xenon exposure after reactivation test); details: xenon 25%, no react group (no reactivation test); for conditioned freezing to context, animals without reactivation test: FIG. 1F; for conditioned freezing to tone, animals without reactivation test: FIG. 1G
Male Sprague-Dawley rats [3] = assay: as above; details: for conditioned freezing to context (reconsolidation of fear memory): FIG. 1D; for conditioned freezing to tone (reconsolidation of fear memory): FIG. 1E
Experimental: as §1
Newly formed memories, including traumatic memories, are stabilized over several hours after the acquisition for long-term storage. This process, termed consolidation, critically depends on the permanence of acquisition-induced synaptic modifications in the corresponding neural circuits and is NMDA-receptor dependent. Once retrieved, consolidated memory enters a labile state again and should be reconsolidated, or it will be diminished or lost (see Debiec, 2012). To explore the effects of xenon exposure on post-retrieval memory reconsolidation, the inventors trained and tested male Sprague-Dawley rats in the conditioned freezing paradigm described in the methods section above.
Immediately after the fear memory test (24 h post-conditioning), where animals are subjected to context and CS (tone) exposure previously paired with shock (on the training day), rats were placed in either the Air or xenon (25%) exposure chambers for 1 hr. Rats were then tested for conditioned freezing 48 hours later. […]

[4] = xenon 25% for 1 hr after reactivation test 24 h post-conditioning, re-tested 48 hours later (PR-LTM1)
[5] = xenon 25% for 1 hr after reactivation test 24 h post-conditioning, re-tested 48 hours later (PR-LTM1), listed as Xe
[6] = xenon 25% for one hour after reactivation, tested after another 48 hours (PR-LTM2)

`[Xe]` [xenon] was tested, and the “fear memory / conditioned freezing, context and cue not separated” value (Male Sprague-Dawley rats [1]; inhaled xenon (25%), male Sprague-Dawley rats, vs non-treated animals, FIG. 1) was “significantly reduces the consolidation of fear memories; also recorded: significantly reduced conditioned freezing”, the “conditioned freezing to context (consolidation of fear memory)” value (Male Sprague-Dawley rats [1]) was “reduced levels of conditioned freezing” and the “conditioned freezing to context (consolidation of fear memory)” value (Male Sprague-Dawley rats [1]; listed as Xe) was “significant reduction in freezing”. For the same molecule, the “conditioned freezing to tone (CS) (consolidation of fear memory)” value (Male Sprague-Dawley rats [1]) was “reduced levels of conditioned freezing”, the “conditioned freezing to tone (CS) (consolidation of fear memory)” value (Male Sprague-Dawley rats [1]; listed as Xe) was “also reduced” and the “conditioned freezing to context, animals without reactivation test” value (Male Sprague-Dawley rats [2]) was “does not block reconsolidation of conditioned fear”. The “conditioned freezing to context, animals without reactivation test” value (Male Sprague-Dawley rats [2]; listed as Xe) was “no reduction in freezing”, the “conditioned freezing to tone, animals without reactivation test” value (Male Sprague-Dawley rats [2]) was “does not block reconsolidation of conditioned fear” and the “conditioned freezing to tone, animals without reactivation test” value (Male Sprague-Dawley rats [2]; listed as Xe) was “no reduction in freezing”. For the same molecule, the “conditioned freezing to context (reconsolidation of fear memory)” value (Male Sprague-Dawley rats [3]; [4]) was “reduces the expression of conditioned freezing; also recorded: blocks reconsolidation of conditioned fear”, the “conditioned freezing to context (reconsolidation of fear memory)” value (Male Sprague-Dawley rats [3]; [5]) was “significantly less freezing” and the “conditioned freezing to tone (reconsolidation of fear memory)” value (Male Sprague-Dawley rats [3]; [4]) was “reduces the expression of conditioned freezing; also recorded: blocks reconsolidation of conditioned fear”. For the same molecule, the “conditioned freezing to tone (reconsolidation of fear memory)” value (Male Sprague-Dawley rats [3]; [5]) was “significantly less freezing”, the “conditioned freezing to context (reconsolidation of fear memory)” value (Male Sprague-Dawley rats [3]; [6]) was “significantly less freezing” and the “conditioned freezing to tone (reconsolidation of fear memory)” value (Male Sprague-Dawley rats [3]; [6]) was “significantly less freezing”.
